Values after ≈ are worked out from the molar mass of the structure shown. Positions of bridges follow the written chain, without caps; N, C: chain ends. Residues, ends and D or L forms follow the SMILES beside them.
Assays:
[1] = system: Mycobacterium tuberculosis mc^26230

CC[C@H](C)[C@H](NC(=O)[C@H](CCCNC(=N)N)NC(=O)[C@@H](NC(=O)[C@H](CS)NC(=O)[C@@H](NC(=O)[C@@H](N)CCCNC(=N)N)C(C)C)C(C)C)C(=O)N[C@@H](CS)C(=O)N[C@@H](CCCNC(=N)N)C(=O)N[C@@H](CC(N)=O)C(=O)NCC(=O)N[C@@H](CCCNC(=N)N)C(=O)N[C@@H](CS)C(=O)N[C@@H](Cc1ccc(O)cc1)C(=O)N[C@@H](CCCNC(=N)N)C(=O)N[C@@H](CCCNC(=N)N)C(=O)N[C@@H](CS)C(=O)N[C@@H](Cc1c[nH]c2ccccc12)C(=O)N[C@@H](CC(N)=O)C(=O)N[C@H](C(=O)O)[C@@H](C)O [Linear unfolded analogue of Michelicin] (H-RVCVRICRNGRCYRRCWNT-OH; N-terminus and C-terminus assumed)
MIC (Vibrio alginolyticus): 0.625 µM (≈ 1.51 µg/mL) | MIC (M. smegmatis mc^2155): 1.25 µM (≈ 3.02 µg/mL)

CC(C)[C@@H]1NC(=O)[C@H](CCCNC(=N)N)NC(=O)[C@H](C(C)C)NC(=O)[C@@H](NC(=O)[C@@H](NC(=O)[C@@H](N)CCCNC(=N)N)C(C)C)CSSC[C@@H](C(=O)N[C@@H](Cc2c[nH]c3ccccc23)C(=O)N[C@@H](CC(N)=O)C(=O)N[C@H](C(=O)O)[C@@H](C)O)NC(=O)[C@H](CCCNC(=N)N)NC(=O)[C@H](CCCNC(=N)N)NC(=O)[C@H](Cc2ccc(O)cc2)NC(=O)[C@@H]2CSSC[C@H](NC1=O)C(=O)N[C@@H](CCCNC(=N)N)C(=O)N[C@@H](CC(N)=O)C(=O)NCC(=O)N[C@@H](CCCNC(=N)N)C(=O)N2 [V1, RVC1VRVC2RNGRC3YRRC4WNT] (H-RVCVRVCRNGRCYRRCWNT-OH; disulfide 3-16, 7-12; N-terminus and C-terminus assumed)
P. aeruginosa MIC (P. aeruginosa): 2.5 to 5 µM | M. tuberculosis mc^26230 MIC [1]: 29.8 to 30.2 µM | V. alginolyticus MIC (Vibrio alginolyticus): 0.125 to 0.312 µM | M. smegmatis mc^2155 MIC (M. smegmatis mc^2155): 1.15 to 4.21 µM

CC[C@H](C)[C@@H]1NC(=O)[C@@H]2CSSC[C@H](NC(=O)[C@H](C(C)C)NC(=O)[C@H](CCCNC(=N)N)NC(=O)[C@H](C(C)C)NC(=O)[C@@H](NC(=O)[C@H](Cc3ccccc3)NC(=O)[C@@H](N)CCCNC(=N)N)CSSC[C@@H](C(=O)N[C@@H](Cc3c[nH]c4ccccc34)C(=O)N[C@@H](CC(N)=O)C(=O)N[C@H](C(=O)O)[C@@H](C)O)NC(=O)[C@H](CCCCN)NC(=O)[C@H](CCSC)NC1=O)C(=O)N[C@@H](CCCNC(=N)N)C(=O)N[C@@H](CC(N)=O)C(=O)NCC(=O)N[C@@H](CCCNC(=N)N)C(=O)N2 [V2, RFC1VRVC2RNGRC3IMKC4WNT] (H-RFCVRVCRNGRCIMKCWNT-OH; disulfide 3-16, 7-12; N-terminus and C-terminus assumed)
P. aeruginosa MIC (P. aeruginosa): 2.5 to 5 µM | M. tuberculosis mc^26230 MIC [1]: 19.7 to 30.0 µM | V. alginolyticus MIC (Vibrio alginolyticus): 0.312 to 0.625 µM | M. smegmatis mc^2155 MIC (M. smegmatis mc^2155): 0.72 to 2.95 µM

CC[C@H](C)[C@@H]1NC(=O)[C@@H]2CSSC[C@H](NC(=O)[C@H](C(C)C)NC(=O)[C@H](CCCNC(=N)N)NC(=O)[C@H](C(C)C)NC(=O)[C@@H](NC(=O)[C@@H](NC(=O)[C@@H](N)CCCNC(=N)N)[C@@H](C)CC)CSSC[C@@H](C(=O)N[C@@H](Cc3c[nH]c4ccccc34)C(=O)N[C@@H](CC(N)=O)C(=O)N[C@H](C(=O)O)[C@@H](C)O)NC(=O)[C@H](CCCCN)NC(=O)[C@H](CCSC)NC1=O)C(=O)N[C@@H](CCCNC(=N)N)C(=O)N[C@@H](CC(N)=O)C(=O)NCC(=O)N[C@@H](CCCNC(=N)N)C(=O)N2 [V3, RIC1VRVC2RNGRC3IMKC4WNT] (H-RICVRVCRNGRCIMKCWNT-OH; disulfide 3-16, 7-12; N-terminus and C-terminus assumed)
P. aeruginosa MIC (P. aeruginosa): 2.5 to 5 µM | M. tuberculosis mc^26230 MIC [1]: 22.9 to 29.6 µM | V. alginolyticus MIC (Vibrio alginolyticus): 0.625 to 1.25 µM | M. smegmatis mc^2155 MIC (M. smegmatis mc^2155): 0.64 to 4.66 µM

CC[C@H](C)[C@H](NC(=O)[C@@H](N)CCCNC(=N)N)C(=O)N[C@H]1CSSC[C@@H](C(=O)N[C@@H](Cc2c[nH]c3ccccc23)C(=O)N[C@@H](CC(N)=O)C(=O)N[C@H](C(=O)O)[C@@H](C)O)NC(=O)[C@H](CCCCN)NC(=O)[C@H](CCSC)NC(=O)[C@H](Cc2ccccc2)NC(=O)[C@@H]2CSSC[C@H](NC(=O)[C@H](C(C)C)NC(=O)[C@H](CCCNC(=N)N)NC(=O)[C@H](C(C)C)NC1=O)C(=O)N[C@@H](CCCNC(=N)N)C(=O)N[C@@H](CC(N)=O)C(=O)NCC(=O)N[C@@H](Cc1ccccc1)C(=O)N2 [V4, RIC1VRVC2RNGFC3FMKC4WNT] (H-RICVRVCRNGFCFMKCWNT-OH; disulfide 3-16, 7-12; N-terminus and C-terminus assumed)
P. aeruginosa MIC (P. aeruginosa): 2.5 to 5 µM | M. tuberculosis mc^26230 MIC [1]: 7.5 to 7.9 µM | V. alginolyticus MIC (Vibrio alginolyticus): 0.312 to 0.625 µM | M. smegmatis mc^2155 MIC (M. smegmatis mc^2155): 1.49 to 4.15 µM

CC[C@H](C)[C@@H]1NC(=O)[C@H](Cc2ccccc2)NC(=O)[C@H](CC(C)C)NC(=O)[C@@H]2CSSC[C@H](NC(=O)[C@H](CCCNC(=N)N)NC1=O)C(=O)N[C@@H](Cc1ccccc1)C(=O)N[C@@H](CCSC)C(=O)N[C@@H](CCCCN)C(=O)N[C@H](C(=O)N[C@@H](Cc1c[nH]c3ccccc13)C(=O)N[C@@H](CC(N)=O)C(=O)N[C@H](C(=O)O)[C@@H](C)O)CSSC[C@H](NC(=O)[C@H](Cc1ccccc1)NC(=O)[C@@H](N)CCCNC(=N)N)C(=O)N[C@@H](C(C)C)C(=O)N[C@@H](CCCNC(=N)N)C(=O)N[C@@H](C(C)C)C(=O)N2 [V5, RFC1VRVC2LFIRC3FMKC4WNT] (H-RFCVRVCLFIRCFMKCWNT-OH; disulfide 3-16, 7-12; N-terminus and C-terminus assumed)
P. aeruginosa MIC (P. aeruginosa): >20 µM | M. tuberculosis mc^26230 MIC [1]: 5.3 to 7.9 µM | V. alginolyticus MIC (Vibrio alginolyticus): 0.625 to 1.25 µM | M. smegmatis mc^2155 MIC (M. smegmatis mc^2155): 3.06 to 8.40 µM

CC[C@H](C)[C@H](NC(=O)[C@@H](N)CCCNC(=N)N)C(=O)N[C@H]1CSSC[C@@H](C(=O)N[C@@H](Cc2c[nH]c3ccccc23)C(=O)N[C@@H](CC(N)=O)C(=O)N[C@H](C(=O)O)[C@@H](C)O)NC(=O)[C@H](CCCCN)NC(=O)[C@H](CCSC)NC(=O)[C@H](Cc2ccccc2)NC(=O)[C@@H]2CSSC[C@H](NC(=O)[C@H](C(C)C)NC(=O)[C@H](CCCNC(=N)N)NC(=O)[C@H](C(C)C)NC1=O)C(=O)N[C@@H](CCCNC(=N)N)C(=O)N[C@@H](CC(N)=O)C(=O)NCC(=O)N[C@@H](CCCNC(=N)N)C(=O)N2 [V6, RIC1VRVC2RNGRC3FMKC4WNT] (H-RICVRVCRNGRCFMKCWNT-OH; disulfide 3-16, 7-12; N-terminus and C-terminus assumed)
P. aeruginosa MIC (P. aeruginosa): >5 µM | M. tuberculosis mc^26230 MIC [1]: >30 µM | V. alginolyticus MIC (Vibrio alginolyticus): 0.125 to 0.312 µM | M. smegmatis mc^2155 MIC (M. smegmatis mc^2155): 1.27 to 2.96 µM

CSCC[C@@H]1NC(=O)[C@H](Cc2ccccc2)NC(=O)[C@@H]2CSSC[C@H](NC(=O)[C@H](C(C)C)NC(=O)[C@H](CCCNC(=N)N)NC(=O)[C@H](C(C)C)NC(=O)[C@@H](NC(=O)[C@@H](NC(=O)[C@H](CO)NC(=O)[C@@H](NC(=O)[C@H](C)NC(=O)[C@H](CCCCN)NC(=O)[C@@H](N)CCCNC(=N)N)C(C)C)[C@@H](C)O)CSSC[C@@H](C(=O)N[C@@H](Cc3c[nH]c4ccccc34)C(=O)N[C@@H](CC(N)=O)C(=O)N[C@H](C(=O)O)[C@@H](C)O)NC(=O)[C@H](CCCCN)NC1=O)C(=O)N[C@@H](CCCNC(=N)N)C(=O)N[C@@H](CC(N)=O)C(=O)NCC(=O)N[C@@H](Cc1ccccc1)C(=O)N2 [V7, RKAVSTC2VRVC3RNGFC4FMKCWNT] (H-RKAVSTCVRVCRNGFCFMKCWNT-OH; disulfide 7-20, 11-16 (inferred); N-terminus and C-terminus assumed)
P. aeruginosa MIC (P. aeruginosa): 2.5 to 5 µM | M. tuberculosis mc^26230 MIC [1]: >30 µM | V. alginolyticus MIC (Vibrio alginolyticus): 0.125 to 0.312 µM | M. smegmatis mc^2155 MIC (M. smegmatis mc^2155): 9.22 to 13.1 µM

CC[C@H](C)[C@@H]1NC(=O)[C@H](CCCNC(=N)N)NC(=O)[C@H](C(C)C)NC(=O)[C@@H](NC(=O)[C@@H](NC(=O)[C@@H](N)CCCNC(=N)N)C(C)C)CSSC[C@@H](C(=O)N[C@@H](Cc2c[nH]c3ccccc23)C(=O)N[C@@H](CC(N)=O)C(=O)N[C@H](C(=O)O)[C@@H](C)O)NC(=O)[C@H](CCCCN)NC(=O)[C@H](CCSC)NC(=O)[C@H](Cc2ccccc2)NC(=O)[C@@H]2CSSC[C@H](NC1=O)C(=O)N[C@@H](CCCNC(=N)N)C(=O)N[C@@H](CC(N)=O)C(=O)NCC(=O)N[C@@H](Cc1ccccc1)C(=O)N2 [V8, RVC1VRIC2RNGFC3FMKC4WNT] (H-RVCVRICRNGFCFMKCWNT-OH; disulfide 3-16, 7-12; N-terminus and C-terminus assumed)
P. aeruginosa MIC (P. aeruginosa): 1.25 to 2.5 µM | M. tuberculosis mc^26230 MIC [1]: 7.3 to 11.9 µM | V. alginolyticus MIC (Vibrio alginolyticus): 0.125 to 0.312 µM | M. smegmatis mc^2155 MIC (M. smegmatis mc^2155): 0.72 to 3.92 µM

CSCC[C@@H]1NC(=O)[C@H](Cc2ccccc2)NC(=O)[C@@H]2CSSC[C@H](NC(=O)[C@H](C(C)C)NC(=O)[C@H](CCCNC(=N)N)NC(=O)[C@H](C(C)C)NC(=O)[C@@H](NC(=O)[C@@H](NC(=O)[C@@H](N)CCCNC(=N)N)C(C)C)CSSC[C@@H](C(=O)N[C@@H](Cc3c[nH]c4ccccc34)C(=O)N[C@@H](CC(N)=O)C(=O)N[C@H](C(=O)O)[C@@H](C)O)NC(=O)[C@H](CCCCN)NC1=O)C(=O)N[C@@H](CCCNC(=N)N)C(=O)N[C@@H](CC(N)=O)C(=O)NCC(=O)N[C@@H](Cc1ccccc1)C(=O)N2 [V9, RVC1VRVC2RNGFC3FMKC4WNT] (H-RVCVRVCRNGFCFMKCWNT-OH; disulfide 3-16, 7-12; N-terminus and C-terminus assumed)
P. aeruginosa MIC (P. aeruginosa): 1.25 to 2.5 µM | M. tuberculosis mc^26230 MIC [1]: 5.1 to 9.1 µM | V. alginolyticus MIC (Vibrio alginolyticus): 0.125 to 0.312 µM | M. smegmatis mc^2155 MIC (M. smegmatis mc^2155): 1.02 to 3.31 µM

Reference: US20250051403A1, “ANTIMICROBIAL PEPTIDES, VARIANTS AND CHEMICAL ANALOGUES THEREOF AND THEIR USES” (priority 2021, published 2025)
